1 compound from patent US8697127B2, “Method for preparing microspheres and microspheres produced thereby” (Ewha University-Industry Collaboration Foundation, priority 2008, dated 2014) can be followed below.

Each structure is given as a SMILES string.

Assay type in all cases: physicochemical
Data set [1] is described as follows: Anastrazole encapsulation ratio of PLGA microparticles (HPLC). Particulars: PLGA 7E/0.15 g + 4A 0.1 g; 60 mg of anastrazole; Ethyl formate; 6 mL of 10 M NaOH.
Assay in data set [2]: as above
To be noted: 60 mg of anastrazole. The protocol:
Each of 7E, 4A and 2A polymers was dissolved in 4 mL of ethyl acetate. Then, 60 mg of anastrazole was dissolved to prepare a dispersed phase. The solution was added to 40 mL of 0.5% PVA aqueous solution and stirred. 5 mL of 10 M NaOH was added to the resultant o/w emulsion. After adding 40 mL of distilled water and stirring, microparticles were recovered by filtration. The microparticles were redispersed in 16 mL of 0.5% PVA aqueous solution. After adding distilled water to make 80 mL, the solution was stirred. After filtration, the microparticles were dried overnight in a vacuum dryer.
Similarly, microparticles encapsulating progesterone were prepared using ethyl formate instead of ethyl acetate and using 6 mL of 10 M NaOH.
Some of the microparticles prepared in Example <8-1> were accurately weighed and dissolved in 4 mL of tetrahydrofuran. After diluting 6 times with 50% acetonitrile, the solution was filtered using a 0.45 μm syringe filter to remove the PLGA precipitate. Some of the filtrate (20 μl) was subjected to HPLC (Shimadzu LC-20AD, Luna 5 m C18(2) column) for measurement of anastrazole concentration. Drug encapsulation ratio (%) was calculated using the equations given in Example <7-2>.

Data set [3] is described as follows: HPLC chromatogram analysis of anastrazole for decomposition or modification products. To be noted: ethyl acetate/PLGA (75:25)/NaOH; encapsulated in the microparticles and then recovered; HPLC chromatograms. The protocol: In order to indirectly estimate whether decomposition or modification products of anastrazole are produced during the preparation of microparticles using ethyl acetate/PLGA (75:25)/NaOH as in Example <8-1>, various samples were prepared (as in Example <8-1>) and their chromatograms were analyzed.

Setting [4] is: PLGA 2A/0.25 g, Ethyl acetate, 5 mL of 10 M NaOH.
The mark [5] stands for this setting: PLGA 4A/0.25 g, Ethyl acetate, 5 mL of 10 M NaOH.
[6] abbreviates: PLGA 7E/0.15 g + 4A 0.1 g, Ethyl formate, 6 mL of 10 M NaOH.
Where [7] appears, read: PLGA 7E/0.15 g + 4A/0.1 g, Ethyl acetate, 5 mL of 10 M NaOH.

For `CC(C)(C#N)c1cc(Cn2cncn2)cc(C(C)(C)C#N)c1` [anastrazole], the “Encapsulation ratio (%) Batch 3” value in data set [1] is on record as 65.5%; in data set [2] (setting [4]), 73.7%; in data set [2] (setting [5]), 77.6%; in data set [2] (setting [7]), 74.7%. The “Encapsulation ratio (%) Batch 1” value is given as 78.5% in data set [2] (setting [4]), 78.1% in data set [2] (setting [5]), 60.8% in data set [2] (setting [6]) and 75.3% in data set [2] (setting [7]). Moreover, the “Encapsulation ratio (%) Batch 2” value in data set [2] (setting [4]) was 75.2%; in data set [2] (setting [5]), 74.9%; in data set [2] (setting [6]), 65.1%; in data set [2] (setting [7]), 73.8%. Further, the “decomposition or modification products of anastrazole during the preparation of microparticles” value in data set [3] was “no decomposition or modification products of anastrazole are produced”.
